The values that follow come from ChEMBL document CHEMBL1201862, “PubChem BioAssay data set” (2004).

Structures are written as SMILES.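 Briefly, cells in 96-well plates were exposed to five compound concentrations for 48 h, and endpoints were estimated by linear interpolation. Here, GI50 denotes the concentration required for 50% inhibition of growth.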 Active and inactive are the calls of the source. Cut-off read from the data, not from the text of the source: active = GI50 up to about 1.1 µM and inactive = higher. Non-standard residues stand in square brackets, D forms with d. Residues, ends and D or L forms follow the SMILES beside them. *: point of attachment. NMeF = CN[CH](Cc1ccccc1)C(=O)O; NMeV = CN[CH](C(=O)O)C(C)C; Boc = CC(C)(C)OC(=O)* Bounds are passed on as bounds.

Common to all, as to experiment: inhibition of tumour cell growth, NCI panel, 48 h
The subject of test [1] is BT-549.
In test [2] the test system is KM-20L2.
The subject of test [3] is M19-MEL.
The test system of test [4] is DMS-273.
In test [5] the test system is XF498.
The subject of test [6] is DMS-114.
Test [7] relates to LXFL 529.
Test [8] deals with HOP-18.

As for `Cc1cccc2sc(NC(=O)c3cc([N+](=O)[O-])ccc3Cl)nc12`, the GI50 in test [1] is 2.44 µM (inactive).

For `CC(C)(C)N1C=[N+](C(C)(C)C)CC1`, in test [1], the GI50 was > 100 µM (inactive).

For the molecule `Nc1ccccc1/N=N/c1c(S(=O)(=O)O)cc2cc(S(=O)(=O)O)cc(O)c2c1O`, in test [1], the GI50 is > 100 µM (inactive).

As for `Cc1ccc(-c2cc(N)n(-c3nc4c([nH]3)c(=O)n(C)c(=O)n4C)n2)cc1`, the GI50 in test [1] is 6.95 µM (inactive).

For the molecule `NCCCN1c2ccccc2Sc2ccc(Cl)cc21`, in test [1], the GI50 was > 7.62 µM (inactive).

With `c1ccc(CCCCNCc2cc(CNCCCCc3ccccc3)cc(CNCCCCc3ccccc3)c2)cc1`, the GI50 in test [1] was 1.63 µM (inactive).

Regarding `COC[C@@H](/N=C/c1ccc(OC)cc1)C(C)C`, in test [1], the GI50 is > 100 µM (inactive).

With `O=C1N/C(=N/N=C/C(O)C(O)C(O)C(O)CO)N/C1=C\c1ccco1` (stereo not drawn), in test [1], the GI50 is > 100 µM (inactive).

With `CC(CC=O)Nc1nn2c(=O)c3ccccc3nc2s1` (stereo not drawn), the GI50 in test [1] was > 100 µM (inactive).

For the molecule `C=CN1CCN(c2ccccc2)P1(=O)Oc1ccccc1` (stereo not drawn), the GI50 in test [1] is > 100 µM (inactive).

Take `CC(C)c1cc2c(cc1S(=O)(=O)O)[C@@]1(C)CCC[C@@](C)(C(=O)O)C1CC2` (stereo partly drawn): the GI50 in test [1] was > 100 µM (inactive).

For `CN(C)c1ccccc1CC(c1c[nH]c2ccccc12)c1c[nH]c2ccccc12`, the GI50 in test [2] is 10.7 µM (inactive); in test [3], 14.9 µM (inactive); in test [4], 13 µM (inactive); in test [5] it was 17.3 µM (inactive); in test [6], 7.62 µM (inactive).

`CC(C)C(NC(=O)OC(C)(C)C)C(=O)N(C)C(Cc1ccccc1)C(=O)N(C)C(C(=O)O)C(C)C` (stereo not drawn) (Boc-Val-[NMeF]-[NMeV]-OH; configuration not given here): the GI50 in test [2], in test [7], in test [3], in test [4], in test [5] and in test [6] was > 100 µM (inactive) throughout.

On to `O=C(COc1ccc(OCC(=O)N2C(=O)CC/C2=N\c2ccc(Cl)cc2)cc1)N1C(=O)CS/C1=N\c1ccc(Cl)cc1`, for which the GI50 in test [1] was 57.4 µM (inactive).

Turning to `COc1cccc2c(=O)oc(-c3ccccc3C)nc12`, in test [1], the GI50 was 21.5 µM (inactive).

For `COc1cc(/C=C/c2sc3ccccc3[n+]2C)ccc1N(C)C`, the GI50 in test [1] was 0.368 µM (active).

On to `N#Cc1ccc(/N=N/N2CCCC2)cc1`, for which the GI50 in test [1] was > 100 µM (inactive).

On to `Nc1ccccc1N/C=C\C(=O)C(Cl)(Cl)Cl`, for which the GI50 in test [1] is 22.9 µM (inactive).

For `O=S(=O)(CC1=NC2C=CC=CC2N=C1)NCc1ccccc1` (stereo not drawn), the GI50 in test [2] is > 100 µM (inactive); in test [7], > 100 µM (inactive); in test [3], > 100 µM (inactive); in test [4] it was > 100 µM (inactive); in test [5], 24.3 µM (inactive); in test [8], > 100 µM (inactive).

As to `CCOC(=O)c1cn2c(n1)sc1c(Cl)c(Cl)ccc12`, the GI50 in test [1] is 33 µM (inactive).

As to `CN(C)c1ccc(/C=c2/c3ccccc3n3c2cc(C24CC5CC(CC(C5)C2)C4)[n+]3C)cc1`, the GI50 in test [1] is 0.245 µM (active).

For the molecule `COc1ccc2c(C)cc(N/N=C/c3ccc(C)s3)nc2c1`, in test [1], the GI50 was 24.3 µM (inactive).

For the molecule `C=C1C(=O)OC2C1CC[C@H](C)C13OC(=O)CC1[C@@]23C` (stereo partly drawn), the GI50 in test [7], in test [3], in test [4] and in test [6] was > 100 µM (inactive) in each case.

As for `c1cc2ccc1C1NCCCN1CCN1CCCNC1c1ccc(cc1)C1NCCCN1CCN1CCCNC21` (stereo not drawn), the GI50 in test [2] was > 100 µM (inactive); in test [7] it was 78.7 µM (inactive); in test [3], 95.7 µM (inactive); in test [4], > 100 µM (inactive); in test [5], > 100 µM (inactive); in test [6] it was > 100 µM (inactive). Also, in test [8], the GI50 is > 100 µM (inactive).

As to `C#Cc1c(C)c(/C=C/C(C)=C/C(=O)OC)n(C)c1C`, the GI50 in test [2] is 87.7 µM (inactive); in test [7], 99.8 µM (inactive); in test [3] it was > 100 µM (inactive); in test [4], 88.7 µM (inactive); in test [5] it was 77.3 µM (inactive); in test [6] it was 36.1 µM (inactive). Moreover, the GI50 in test [8] was > 100 µM (inactive).

Consider `O=C(NCCCCN(CCCNC(=O)C(F)(F)F)Cc1ccccc1)C(F)(F)F`, for which the GI50 in test [1] was > 100 µM (inactive).

For `Cc1ccnc2nc(-c3ccc4ccccc4c3)cc(O)c12`, the GI50 in test [1] is 5.32 µM (inactive).

Take `COc1ccc(OC)c(/C(C)=N/NC(N)=S)c1`: the GI50 in test [2], in test [7], in test [3], in test [4], in test [5] and in test [6] was > 100 µM (inactive) each time. In addition, in test [8], the GI50 was > 100 µM (inactive).
